Read-outs that look alike come from different tables or passages of the source.
Experiments:
[1] = target: T1, vaccinia DNA topoisomerase IB (vTopo) (Vaccinia virus, UniProt P68698); test: biochemical; conditions: for remaining activity at 100 µM: 0.5 h, read-out: % vTopo activity
[2] = target: T1, vaccinia DNA topoisomerase IB (vTopo); test: biochemical
[3] = target: human topoisomerase type IB (hTopo) (Homo sapiens, UniProt P11387); test: biochemical; type: biochemical
[4] = target: T2, vTopo (Vaccinia virus, UniProt P68698); type: biochemical
T2 construct: made in house

[5] = target: T2, vTopo; type: biochemical; remark: listed apart in the source
[6] = target: T2, vTopo; type: biochemical; conditions: equilibrium cleavage
[7] = target: T3, Y274F vTopo (Vaccinia virus, UniProt P68698, Y274F); type: binding
T3 construct: made in house

[8] = read-out: % Inhibition (RNAse HTS)
[9] = read-out: % Inhibition (plasmid SC release assay)

human topoisomerase type IB (hTopo), sequence (P11387 whole entry): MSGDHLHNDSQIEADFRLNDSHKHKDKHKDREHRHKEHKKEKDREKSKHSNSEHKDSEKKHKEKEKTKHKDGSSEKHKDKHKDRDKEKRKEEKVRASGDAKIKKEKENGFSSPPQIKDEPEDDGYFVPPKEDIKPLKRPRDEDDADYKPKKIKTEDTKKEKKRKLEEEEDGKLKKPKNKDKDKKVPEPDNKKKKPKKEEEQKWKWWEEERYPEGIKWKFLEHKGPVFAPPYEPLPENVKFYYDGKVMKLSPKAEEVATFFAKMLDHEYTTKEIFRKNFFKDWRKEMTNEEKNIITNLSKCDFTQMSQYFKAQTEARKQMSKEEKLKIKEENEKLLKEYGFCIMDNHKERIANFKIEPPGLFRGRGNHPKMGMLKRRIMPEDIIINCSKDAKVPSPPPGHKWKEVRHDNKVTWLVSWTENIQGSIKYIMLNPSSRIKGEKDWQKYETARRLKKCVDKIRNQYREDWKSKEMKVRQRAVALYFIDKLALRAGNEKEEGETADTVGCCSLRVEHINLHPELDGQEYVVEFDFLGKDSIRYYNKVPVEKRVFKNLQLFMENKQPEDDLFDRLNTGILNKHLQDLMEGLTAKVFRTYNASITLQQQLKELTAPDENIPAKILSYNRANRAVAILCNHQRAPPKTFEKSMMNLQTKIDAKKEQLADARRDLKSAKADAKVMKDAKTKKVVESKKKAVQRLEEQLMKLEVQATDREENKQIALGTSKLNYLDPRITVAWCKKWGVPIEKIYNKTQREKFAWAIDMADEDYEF

O=C1C=C/C(=N/c2cccc3c(/N=C4/C=CC(=O)O4)cccc23)O1 [NSC 69575]
inhibition at 100 µM [1, 8]: 100%

CC(C)(C)C(=O)C(C(c1ccccc1)N1CCOCC1)N1CCOCC1 (stereo not shown) [NSC 33571]
inhibition at 100 µM [1, 8]: 100%

Nc1ncnc2nc[nH]c12.Nc1ncnc2nc[nH]c12.[Cl][Pt]([Cl])([Cl])[Cl] [NSC 177395]
% Inhibition (RNAse HTS) ([1]; 100 µM): 100% @

CC(CCC(=O)O)C1CCC2C3CCC4CC(O)CCC4(C)C3CCC12C (stereo not shown) [NSC 683770]
inhibition at 100 µM [1, 8]: 100%

Nc1ccc(S(=O)(=O)c2ccc(NCN3C(=O)NC(=O)C(=O)C3=O)cc2)cc1 [NSC 34238]
inhibition at 100 µM [1, 8]: 100%

O=C(O)CCc1ccc(-c2ccccc2)[nH]1 [NSC 75600]
remaining activity at 100 µM [1]: 35%

Cc1ccc(NC(=[OH+])c2cc3ccccc3cc2O)c(C)c1.Cc1ccc(NC(=[OH+])c2cc3ccccc3cc2O)c(C)c1.[Ni] [NSC 306698]
% Inhibition (RNAse HTS) ([1]; 100 µM): 100% @100 μM

O=C(O)Cc1c(O)ccc2ccccc12 [NSC 163339]
remaining activity at 100 µM [1]: 48%

O=C(O)CSCc1ccc(N=C=S)c(O)c1 [NSC 403376]
remaining activity at 100 µM [1]: 45%

O=C(O)c1cc(-c2ccc(-c3ccc(-c4cc(C(=O)O)c5cc(Cl)ccc5n4)cc3)cc2)nc2ccc(Cl)cc12 [NSC 210627]
inhibition at 100 µM [1, 8]: 100%

O=[N+]([O-])/C=C/c1cc2ccccc2[nH]1 [NSC 150982]
remaining activity at 100 µM [1]: 54%

N#C/C(=C\Nc1ccccn1)C(=O)c1ccco1 [NSC 379552]
remaining activity at 100 µM [1]: 7%

Nc1c(S(N)(=O)=O)cc(S(N)(=O)=O)cc1S(N)(=O)=O [NSC 25857]
inhibition at 100 µM [1, 8]: 100%

COc1ccc2c3c([nH]c2c1)C1CC2C(CC(O)C(OC)C2C(=O)O)CN1CC3 (stereo not shown) [NSC 81463]
% Inhibition (RNAse HTS) ([1]; 100 µM): Partial @100 μM

CN(C)Cc1cc(O)c(O)c(CN(C)C)c1 [NSC 39225]
remaining activity at 100 µM [1]: 52%

O=C(O)c1ccc2ccc(-c3cccc4cccc(C(=O)O)c34)cc2c1 [NSC 7810]
inhibition at 10 µM [2, 9]: 100% | inhibition at 2.5 µM [1, 8]: 100%

COP(OCc1ccccc1)Oc1cccc2c1C(=O)c1cn3c(c1C2=O)C(C)c1ccccc1C3 (stereo not shown) [NSC 611615]
inhibition at 100 µM [1, 8]: 100%

CC(CCC(=O)O)(c1cc(Br)c(O)c(Br)c1)c1cc(Br)c(O)c(Br)c1 [NSC 21588]
inhibition at 5 µM [2, 9]: 100% | inhibition at 1.2 µM [1, 8]: 100%

Cc1cc(O)c(-c2cc(O)c(C)cc2O)cc1O [NSC 2805]
remaining activity at 100 µM [1]: 30%

Cc1ccc2nc(-c3ccc(NC(=O)c4ccc(N)cc4)c(S(=O)(=O)O)c3)sc2c1 [NSC 26699]
inhibition at 100 µM [1, 8]: 100%

Nc1c(OCC(=O)O)ccc2cc(S(=O)(=O)O)ccc12 [NSC 16163]
inhibition at 100 µM [1, 8]: 100%

Cc1cc(N)c2cc(OCCOc3ccc4nc(C)cc(N)c4c3)ccc2n1 [NSC 22907]
inhibition at 100 µM [1, 8]: 100%

Cc1c/c(=N\c2ccc3c(c2)c(N)cc(C)[n+]3C)nc(N)n1C [NSC 48223]
inhibition at 100 µM [1, 8]: 100%

CC[C@@]1(O)C(=O)OCc2c1cc1n(c2=O)Cc2cc3ccccc3nc2-1 [NSC 100880]
% Inhibition (RNAse HTS) ([1]; 100 µM): Partial @100 μM

O=C1CNCCCN2CCN(CCCNCC(=O)Nc3ccc(cc3)S(=O)(=O)c3ccc(cc3)NC(=O)CNCCCN3CCN(CCCNCC(=O)Nc4ccc(cc4)S(=O)(=O)c4ccc(cc4)N1)CC3)CC2 [NSC 95609]
inhibition at 100 µM [1, 8]: 100%

Oc1cc(O)c2c(c1)OC(c1ccc(O)c(O)c1)C(O)C2c1c(O)cc(O)c2c1OC(c1ccc(O)c(O)c1)C(O)C2 (stereo not shown) [NSC 143099]
inhibition at 5 µM [2, 9]: 100% | inhibition at 1 µM [1, 8]: 100%

Cc1ccc(S(=O)(=O)C2C(C3COC(C)(C)O3)OC3OC(C)(C)OC32)cc1 (stereo not shown) [NSC 14163]
inhibition at 5 µM [2, 9]: 50% | Selectivity [3]: >3333 | inhibition at 20 µM [3, 9]: 0% | inhibition at 2.5 µM [1, 8]: 100%

COc1ccc2c(=O)cc(-c3ccncc3)oc2c1OC [NSC 54646]
inhibition at 10 µM [1, 8]: 100%

CN(C)CS/C(N)=N/[C@H](O)C(Cl)(Cl)Cl [NSC 14555]
inhibition of the relaxation reaction [2]: complete inhibition | % vTopo activity [1]: 28%

COc1ccc(/C=N/c2c(O)ccc3ccccc23)cc1OC [NSC 17061]
% Inhibition (RNAse HTS) ([1]; 100 µM): Partial @100 μM

O=C(O)c1cnc2c(ccc3ncc(C(=O)O)c(O)c32)c1O [NSC 1288884]
% Inhibition (RNAse HTS) ([1]; 100 µM): Partial @100 μM

Oc1cc(O)c2c(c1)OC(c1ccc(O)c(O)c1)C(OC1(c3cc(O)c(O)c(O)c3)Oc3cc(O)cc(O)c3C(O)C1O)C2 (stereo not shown) [NSC 143101]
inhibition at 0.5 µM [2, 9]: 70% | inhibition at 0.5 µM [1, 8]: 100%

O=C(O)C(O)(c1ccc(-c2ccccc2)cc1)c1ccc(-c2ccccc2)cc1 [NSC 28086]
inhibition at 5 µM [2, 9]: 100% | inhibition at 1 µM [1, 8]: 100%

CC(=O)c1ccccc1C(=O)c1ccc(C(=O)O)c(C(=O)O)c1 [NSC 28620]
inhibition at 5 µM [2, 9]: 100% | inhibition at 1 µM [1, 8]: 100%

C/C(=N\CC(=O)O)c1ccccc1 [NSC 125214]
remaining activity at 100 µM [1]: 53%

O=C(O)C1C(C(=O)Nc2ccc3c(c2)Cc2ccccc2-3)C2(Cl)C(Cl)=C(Cl)C1(Cl)C2(Cl)Cl (stereo not shown) [NSC 73101]
inhibition at 100 µM [1, 8]: 100%

Cc1cc(Cl)nc2ccc(Cc3ccc4nc(Cl)cc(C)c4c3)cc12 [NSC 109451]
% Inhibition (RNAse HTS) ([1]; 100 µM): Partial @100 μM

COc1ccc2nc3cc(Cl)ccc3c(Nc3ccc(O)c(CN4CCN(C)CC4)c3)c2c1 [NSC 130813]
inhibition at 100 µM [1, 8]: 100%

Cc1cc(N)c2cc(NC(=O)Nc3ccc4nc(C)cc(N)c4c3)ccc2n1 [NSC 12155]
inhibition at 0.5 µM [2, 9]: 40% | inhibition at 2.5 µM [1, 8]: 100%

CCC(=C(C)C)c1ccc(Oc2cccc(C(=O)O)c2)cc1 [NSC 7962]
remaining activity at 100 µM [1]: 33%

COc1cc(C)cc2c(-c3c(O)cc(O)c4c3CC(C)NC4C)cc(-c3cc(-c4c(O)cc(O)c5c4CC(C)NC5C)c4cc(C)cc(OC)c4c3O)c(O)c12 (stereo not shown) [NSC 661755]
inhibition at 10 µM [1, 8]: 100%

CCC(O)[NH+]1CC[NH+](C(O)CC)CC1.[Cl][Pt-2]([Cl])([Cl])([Cl])([Cl])[Cl] (stereo not shown) [NSC 295558]
% Inhibition (RNAse HTS) ([1]; 100 µM): 100% @

CNCSC(C)c1ccc(O)c(O)c1 (stereo not shown) [NSC 39215]
remaining activity at 100 µM [1]: 27%

O=C(O)c1cc2c(cc1S(=O)(=O)O)C1C(C3C2C2(Cl)C(Cl)=C(Cl)C3(Cl)C2(Cl)Cl)C2(Cl)C(Cl)=C(Cl)C1(Cl)C2(Cl)Cl (stereo not shown) [NSC 270718]
% Inhibition (RNAse HTS) ([1]; 10 µM): 100% @

CN1CCN(c2ccc3[nH]c(-c4ccc5[nH]c(-c6ccc(O)cc6)nc5c4)nc3c2)CC1 [NSC 322921]
inhibition at 100 µM [1, 8]: 100%

O=C(O)C(=O)Cc1ccc2c(c1)OCO2 [NSC 112983]
IC50 [2]: ~7 µM | inhibition of the supercoil relaxation activity of vTopo [2]: complete inhibition | % covalent complex remaining [4]: 7% | decrease of fraction covalent complex remaining [4]: 50% | inhibition of the hTopo supercoil relaxation reaction [3]: no detectable inhibition | effect on the single-turnover cleavage rate ([5]; 8 μM): no effect | cleavage rate kcl ([5]; in the presence of 8 μM 112983 (2.3±0.06 in its absence)): 1.8 ± 0.05 s⁻¹ | decrease of percent covalently bound DNA ([6]; 100 μM compound): 50% | decrease in the amount of covalent complex ([6]; 100 μM, vs control without compound): 2 fold | IC50 [1]: ~2000 nM | Ki [1]: 1600 ± 600 nM | remaining activity at 100 µM [1]: 9% | inhibition at 8 µM ([1]; read-out: inhibition of the ribonuclease reaction rate): ~75% | anisotropy of Y274F-DNA complex in presence of compound [7]: unchanged

Oc1c(Cl)cc(C(c2cc(Cl)c(O)c(Cl)c2)C(c2cc(Cl)c(O)c(Cl)c2)c2cc(Cl)c(O)c(Cl)c2)cc1Cl [NSC 172033]
inhibition at 10 µM [1, 8]: 100%

CCCCCC(O)C1C(=O)OC(C)O/C=C/C=C/C=CC=C/C=C(/C)C(O)CC(O)CC(O)CC(O)CC(O)CC(O)CC1O (stereo not shown) [NSC 3364]
inhibition at 100 µM [1, 8]: 100%

CC1CCC2(C(=O)O)CCC3(C)C(=CCC4C5(C)CC(O)C(O)C(C)(CO)C5C(O)CC43C)C2C1C (stereo not shown) [NSC 88135]
inhibition at 100 µM [1, 8]: 100%

C[C@]12CCC(=O)C=C1CCC1[C@@H]3CC[C@H](C(=O)OS(=O)(=O)c4ccc(Br)cc4)C3CC[C@@H]12 (stereo partly shown) [NSC 88915]
inhibition at 0.006 µM [2, 9]: 50% | Selectivity [3]: 833 | inhibition at 5 µM [3, 9]: 50% | inhibition at 0.5 µM [1, 8]: 100%

C/C(=N\C1CCCCC1)c1ccccc1O [NSC 120917]
inhibition of the relaxation reaction [2]: complete inhibition | remaining activity at 100 µM [1]: 28%

From US20080020973A1 (priority 2004, published 2008)
